In brackets after ≈: the same amount, converted by molar mass.
Experiments:
Assay type in all cases: cell-based
[1] = test system: Escherichia coli NCTC 8196; assay: Minimum inhibitory concentration (MIC) in microtitre plates; settings: for Minimum inhibitory concentration (MIC) E. coli: Table 7, 48 hours at 37° C., MIC = ≦20% growth compared to control; for Minimum inhibitory concentration (MIC) E. coli NCTC 8196: Table 8, * = significant inhibition of growth, but not complete inhibition
In short: (§1)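 Compounds in DMSO, 1:2 dilution series; bacteria at 1–5×10^6 CFU/ml diluted 1:100 in CASO broth. Incubation 48 h at 37° C, growth read as OD 620 nm. MIC is the lowest concentration giving ≤20% growth relative to control; duplicates.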

[2] = test system: Staphylococcus hominis DMS 20328; assay: as above; settings: Table 7; 48 hours at 37° C.; MIC = ≦20% growth compared to control
In short: as §1

[3] = test system: Aspergillus niger ATCC 6275; assay: Minimum inhibitory concentration (MIC), further microorganisms; settings: Table 8; * = significant inhibition of growth, but not complete inhibition
In short: (§2)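 Organisms at 1–5×10^6 CFU/ml were diluted 1:100 into CASO broth (bacteria, yeast) or Sabouraud 2% glucose broth (mould) over 1:2 DMSO dilution series of compound. Bacteria and yeast were incubated 48 h at 37 °C and mould 5 days at 28 °C. MIC is the lowest concentration giving ≤20% growth versus control by OD620, in duplicate.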

[4] = test system: Candida albicans ATCC 10231; assay: as above; settings: Table 8; * = significant inhibition of growth, but not complete inhibition
In short: as §2

[5] = test system: Enterococcus hirae ATCC 10541; assay: as above; settings: Table 8; * = significant inhibition of growth, but not complete inhibition
In short: as §2

[6] = test system: Epidermophyton floccosum DSM 10709; assay: as above; settings: Table 8; * = significant inhibition of growth, but not complete inhibition
In short: as §2

[7] = test system: Klebsiella pneumonia ATCC 4352; assay: as above; settings: Table 8; * = significant inhibition of growth, but not complete inhibition
In short: as §2

[8] = test system: Micrococcus luteus ATCC 9341; assay: as above; settings: Table 8; * = significant inhibition of growth, but not complete inhibition
In short: as §2

[9] = test system: Pseudomonas aeruginosa CIP A-22; assay: as above; settings: Table 8
In short: as §2

[10] = test system: S. epidermidis ATCC 12228; assay: as above; settings: Table 8; * = significant inhibition of growth, but not complete inhibition
In short: as §2

[11] = test system: Salmonella choleraesuis ATCC 10708; assay: as above; settings: Table 8
In short: as §2

[12] = test system: Staphylococcus aureus ATCC 9144; assay: as above; settings: Table 8; * = significant inhibition of growth, but not complete inhibition
In short: as §2

[13] = test system: Trichophyton mentagrophytes ATCC 9533; assay: as above; settings: Table 8; * = significant inhibition of growth, but not complete inhibition
In short: as §2

Row | SMILES | Minimum inhibitory concentration (MIC) E. coli [1] [µg/mL] | Minimum inhibitory concentration (MIC) E. coli NCTC 8196 [1] [µg/mL] | Minimum inhibitory concentration (MIC) S. hominis [2] [µg/mL] | Minimum inhibitory concentration (MIC) Aspergillus niger ATCC 6275 [3] | Minimum inhibitory concentration (MIC) Candida albicans ATCC 10231 [4] [µg/mL] | Minimum inhibitory concentration (MIC) Enterococcus hirae ATCC 10541 [5] [µg/mL] | Minimum inhibitory concentration (MIC) Epidermophyton floccosum DSM 10709 [6] [µg/mL] | Minimum inhibitory concentration (MIC) Klebsiella pneumonia ATCC 4352 [7] | Minimum inhibitory concentration (MIC) Micrococcus luteus ATCC 9341 [8] | Minimum inhibitory concentration (MIC) Pseudomonas aeruginosa CIP A-22 [9] [µg/mL] | Minimum inhibitory concentration (MIC) S. epidermidis ATCC 12228 [10] | Minimum inhibitory concentration (MIC) Salmonella choleraesuis ATCC 10708 [11] [µg/mL] | Minimum inhibitory concentration (MIC) Staphylococcus aureus ATCC 9144 [12] | Minimum inhibitory concentration (MIC) Trichophyton mentagrophytes ATCC 9533 [13]
1 | CC(C)(C)c1cc(NCCCCCCCCCN)nc(-c2ccccn2)n1 [compound 54] | 120 (≈ 325 µM) | >60 | 30 (≈ 81.2 µM) | >60 µg/mL | >60 | >60 | >60 | >60 µg/mL | 15 µg/mL (≈ 40.6 µM) | >60 | >60 µg/mL | >60 | *60 μg/mL | >60 µg/mL
2 | CCCCCCCCCCCCNc1cc(C(C)(C)C)nc(-c2ccccn2)n1 [compound 60] | 120 (≈ 303 µM) | >60 | 3.75 (≈ 9.45 µM) | 60 µg/mL (≈ 151 µM) | >60 | 7.5 (≈ 18.9 µM) | >60 | >60 µg/mL | <3.75 µg/mL | >60 | *7.5 μg/mL | >60 | 15 µg/mL (≈ 37.8 µM) | >60 µg/mL
3 | Cc1nc(-c2ccccn2)nc(NCCCCCCCCN)c1C(C)C [compound 65] | 120 (≈ 338 µM) | >60 | 30 (≈ 84.4 µM) | >60 µg/mL | >60 | >60 | >60 | >60 µg/mL | >60 µg/mL | >60 | >60 µg/mL | >60 | >60 µg/mL | >60 µg/mL
4 | Cc1nc(-c2ccccn2)nc(NCCCCCCCCCN)c1C(C)C [compound 66] | 30 (≈ 81.2 µM) | >60 | 3.75 (≈ 10.1 µM) | >60 µg/mL | >60 | >60 | >60 | >60 µg/mL | *30 μg/mL | >60 | 60 µg/mL (≈ 162 µM) | >60 | 60 µg/mL (≈ 162 µM) | >60 µg/mL
5 | CCCCCCCCNc1nc(-c2ccccn2)nc(C)c1C(C)C [compound 69] | 120 (≈ 352 µM) | >60 | 3.75 (≈ 11 µM) | *60 μg/mL | 60 (≈ 176 µM) | 3.75 (≈ 11 µM) | 15 (≈ 44.1 µM) | *60 μg/mL | <3.75 µg/mL | >60 | 7.5 µg/mL (≈ 22 µM) | >60 | 7.5 µg/mL (≈ 22 µM) | *15 μg/mL
